Experimental data reported in the NIST ThermoML archive (doi:10.1016/j.jct.2014.01.030).

Test: xn = mol fraction of the nth substance listed
Details: 101 kPa, Liquid; for speed of sound: Sing-around technique in a fixed-path interferometer; for mass density: Vibrating tube method

CCn1cc[n+](C)c1.COS(=O)(=O)[O-] [1-ethyl-3-methylimidazolium methylsulfate] + CC(C)O
Details | mass density, 288.15 K [kg/m3] | mass density, 298.15 K [kg/m3] | mass density, 308.15 K [kg/m3] | speed of sound, 288.15 K [m/s] | speed of sound, 298.15 K [m/s] | speed of sound, 308.15 K [m/s]
x2 = 0 | 1287.57 | 1280.81 | 1273.97 | 1781 | 1756 | 1732
x2 = 0.049 | 1277.61 | 1270.72 | 1263.87 | 1766 | 1741 | 1717
x2 = 0.101 | 1266.36 | 1259.44 | 1252.56 | 1749 | 1724 | 1700
x2 = 0.205 | 1240.88 | 1233.92 | 1227.01 | 1708 | 1683 | 1658
x2 = 0.307 | 1212.09 | 1205.09 | 1198.13 | 1659 | 1634 | 1609
x2 = 0.388 | 1185.23 | 1178.18 | 1171.15 | 1614 | 1588 | 1564
x2 = 0.505 | 1140.35 | 1133.21 | 1126.08 | 1541 | 1515 | 1490
x2 = 0.611 | 1091.15 | 1083.89 | 1076.62 | 1469 | 1443 | 1416
x2 = 0.705 | 1039.05 | 1031.61 | 1024.15 | 1402 | 1375 | 1348
x2 = 0.805 | 972.17 | 964.55 | 956.84 | 1326 | 1298 | 1269
x2 = 0.902 | 891.92 | 884.06 | 876.06 | 1252 | 1221 | 1190
x2 = 0.953 | 842.51 | 834.48 | 826.24 | 1214 | 1181 | 1148

CCn1cc[n+](C)c1.COS(=O)(=O)[O-] [1-ethyl-3-methylimidazolium methylsulfate] + CCC(C)O
Details | mass density, 288.15 K [kg/m3] | mass density, 298.15 K [kg/m3] | mass density, 308.15 K [kg/m3] | speed of sound, 288.15 K [m/s] | speed of sound, 298.15 K [m/s] | speed of sound, 308.15 K [m/s]
x2 = 0 | 1287.57 | 1280.81 | 1273.97 | 1781 | 1756 | 1732
x2 = 0.054 | 1274.82 | 1267.9 | 1261.04 | 1762 | 1738 | 1714
x2 = 0.106 | 1261.26 | 1254.37 | 1247.52 | 1743 | 1718 | 1693
x2 = 0.204 | 1233.86 | 1226.94 | 1220.05 | 1698 | 1673 | 1649
x2 = 0.306 | 1201.1 | 1194.21 | 1187.37 | 1644 | 1619 | 1594
x2 = 0.405 | 1165.21 | 1158.22 | 1151.25 | 1587 | 1562 | 1536
x2 = 0.507 | 1122.93 | 1115.87 | 1108.83 | 1527 | 1501 | 1475
x2 = 0.608 | 1075.89 | 1068.69 | 1061.49 | 1467 | 1440 | 1414
x2 = 0.713 | 1019.51 | 1012.15 | 1004.76 | 1406 | 1378 | 1350
x2 = 0.801 | 964.94 | 957.44 | 949.85 | 1356 | 1326 | 1297
x2 = 0.905 | 890.81 | 883.1 | 875.21 | 1299 | 1267 | 1235
x2 = 0.948 | 856.61 | 848.81 | 840.73 | 1277 | 1244 | 1210

CCn1cc[n+](C)c1.COS(=O)(=O)[O-] [1-ethyl-3-methylimidazolium methylsulfate] + CCCCCO
Details | mass density, 288.15 K [kg/m3] | mass density, 298.15 K [kg/m3] | mass density, 308.15 K [kg/m3] | speed of sound, 288.15 K [m/s] | speed of sound, 298.15 K [m/s] | speed of sound, 308.15 K [m/s]
x2 = 0 | 1287.57 | 1280.81 | 1273.97 | 1781 | 1756 | 1732
x2 = 0.057 | 1271.79 | 1264.9 | 1258.06 | 1759 | 1734 | 1710
x2 = 0.113 | 1255.1 | 1248.21 | 1241.74 | 1733 | 1708 | 1684
x2 = 0.216 | 1221.14 | 1214.5 | 1207.89 | 1678 | 1652 | 1628
x2 = 0.306 | 1188.62 | 1181.87 | 1175.24 | 1627 | 1600 | 1576
x2 = 0.404 | 1150.41 | 1143.48 | 1136.6 | 1569 | 1544 | 1519
x2 = 0.51 | 1104.6 | 1097.6 | 1090.68 | 1511 | 1485 | 1459
x2 = 0.608 | 1058.29 | 1051.16 | 1043.98 | 1463 | 1435 | 1408
x2 = 0.716 | 1001.72 | 994.56 | 987.39 | 1413 | 1385 | 1357
x2 = 0.801 | 952.72 | 945.38 | 938.08 | 1378 | 1349 | 1320
x2 = 0.9 | 889.67 | 882.45 | 875.19 | 1342 | 1311 | 1280
x2 = 0.956 | 851 | 843.78 | 836.48 | 1325 | 1292 | 1260

CCn1cc[n+](C)c1.COS(=O)(=O)[O-] [1-ethyl-3-methylimidazolium methylsulfate] + CCCO
Details | mass density, 288.15 K [kg/m3] | mass density, 298.15 K [kg/m3] | mass density, 308.15 K [kg/m3] | speed of sound, 288.15 K [m/s] | speed of sound, 298.15 K [m/s] | speed of sound, 308.15 K [m/s]
x2 = 0 | 1287.57 | 1280.81 | 1273.97 | 1781 | 1756 | 1732
x2 = 0.055 | 1277.08 | 1270.16 | 1263.29 | 1765 | 1741 | 1717
x2 = 0.104 | 1266.71 | 1259.77 | 1252.89 | 1750 | 1725 | 1701
x2 = 0.21 | 1241.65 | 1234.68 | 1227.75 | 1712 | 1687 | 1662
x2 = 0.307 | 1215.18 | 1208.16 | 1201.19 | 1671 | 1645 | 1620
x2 = 0.414 | 1181.08 | 1174.01 | 1166.97 | 1617 | 1592 | 1567
x2 = 0.519 | 1141.11 | 1133.94 | 1126.8 | 1559 | 1533 | 1507
x2 = 0.62 | 1095.52 | 1088.26 | 1081.02 | 1498 | 1471 | 1445
x2 = 0.718 | 1042.21 | 1034.8 | 1027.38 | 1435 | 1407 | 1380
x2 = 0.81 | 981.73 | 974.16 | 966.57 | 1373 | 1344 | 1315
x2 = 0.907 | 903.61 | 895.88 | 888.1 | 1307 | 1276 | 1245
x2 = 0.954 | 858.4 | 850.58 | 842.66 | 1276 | 1243 | 1211
